pIC50: −log10 of the molar value.
Legend:
steroid sulfatase [1] = molecular target: T1, steroid sulfatase (Homo sapiens, UniProt P08842); assay: Steroid sulfatase inhibition in vitro (purified enzyme, 4-methylumbelliferyl sulfate cleavage, fluorescence); conditions: purified human placental steroid sulfatase, 0.5 mM 4-methylumbelliferyl sulfate, 37°, 1 hour; reference determined in parallel
T1 sequence (P08842 22-583): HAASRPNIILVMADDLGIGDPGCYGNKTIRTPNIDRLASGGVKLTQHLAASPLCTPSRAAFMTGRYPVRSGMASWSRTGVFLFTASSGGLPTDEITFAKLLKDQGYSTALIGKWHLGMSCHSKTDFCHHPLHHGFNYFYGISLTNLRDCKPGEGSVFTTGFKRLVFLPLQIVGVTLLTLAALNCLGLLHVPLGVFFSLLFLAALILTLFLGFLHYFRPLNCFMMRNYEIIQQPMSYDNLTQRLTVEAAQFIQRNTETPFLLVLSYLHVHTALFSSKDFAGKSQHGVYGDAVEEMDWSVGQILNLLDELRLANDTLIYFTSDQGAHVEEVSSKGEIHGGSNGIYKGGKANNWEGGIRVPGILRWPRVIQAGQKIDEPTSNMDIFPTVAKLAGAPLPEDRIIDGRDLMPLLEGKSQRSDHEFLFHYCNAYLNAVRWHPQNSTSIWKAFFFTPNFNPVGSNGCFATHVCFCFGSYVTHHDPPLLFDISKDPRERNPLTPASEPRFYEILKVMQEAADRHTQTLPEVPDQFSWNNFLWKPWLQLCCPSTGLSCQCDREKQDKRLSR
Procedure: Steroid Sulfatase Inhibition in vitro
a) Purification of Human Steroid Sulfatase
Human placenta is obtained fresh after delivery and stripped of membranes and connective tissues. For storage the material is frozen at −70°. After thawing, all further steps are carried out at 4°, while pH values are adjusted at 20°. 400 g of tissue are homogenized in 1.2 l of buffer A (50 mM Tris-HCl, pH 7.4; 0.25M sucrose). The homogenate is centrifuged at 10,000 g for 45 minutes. The supernatant is set aside and the pellet re-homogenized in 500 ml of buffer A. After centrifugation the two supernatants are combined and subjected to ultracentrifugation (100,000 g, 1 hour). The pellet is resuspended in buffer A and the centrifugation repeated. The pellet is suspended in 50 ml of 50 mM Tris-HCl, pH 7.4 and stored at −20° until further work-up.
After thawing, microsomes are collected by ultracentrifugation as described above and suspended in 50 ml of buffer B (10 mM Tris-HCl, pH 7.0; 1 mM EDTA; 2 mM 2-mercaptoethanol; 1% Triton X-100 v/v; 0.1% aprotinin v/v). After 1 hour on ice with gentle agitation the suspension is centrifuged (100,000 g, 1 hour). […]
Purified human steroid sulfatase also readily cleaves aryl sulfates such as 4-methylumbelliferyl sulfate. […]
Plates are incubated at 37° for 1 hour. […] Fluorescence intensity is measured (Titertek Fluoroskan II) with λex=355 nm and λem=460 nm. […]

steroid sulfatase [2] = molecular target: T1, steroid sulfatase; assay: Steroid sulfatase inhibition in cell extracts (HaCaT keratinocytes or 1BR3GN fibroblasts, [3H]-DHEAS cleavage); format: biochemical; parameters: the supernatant which contains the solubilized enzyme is removed and stored at 4°; endogenous in cells; host or cells: HaCaT keratinocytes or 1BR3GN fibroblasts (microsomal extract); conditions: solubilized enzyme from HaCaT or 1BR3GN cells, 50 μM DHEAS, 30 minutes at 37°; depending on the enzyme concentration used
Procedure: Steroid Sulfatase Inhibition in Cell Extracts
Human keratinocytes (HaCaT) or human skin-derived fibroblasts (1BR3GN) are grown to confluency using standard cell culture techniques. Cells are harvested by trypsinization, washed once with phosphate-buffered saline (PBS) and suspended in 20 mM Tris-HCl, pH 8.0. The suspension is sonicated and then centrifuged at 12000 g for 30 minutes. The supernatant is subjected to ultracentrifugation at 100000 g for 60 minutes. The resulting microsomal pellet is resuspended in buffer containing 0.1% Triton X-100 v/v and left standing for 30 minutes. After additional centrifugation at 100000 g for 30 minutes the supernatant which contains the solubilized enzyme is removed and stored at 4°.
For assay of the enzymatic activity 10 μl of enzyme solution are added to 100 μl of 50 μM dehydroepiandrosterone sulfate (DHEAS) containing approximately 60000 dpm [^3H]-DHEAS (21 Ci/mmol) in 0.1 M Tris-HCl, pH 7.5; 0.1% v/v Triton X-100. Test compound is included at various concentrations added from stock solutions in DMSO. After incubation for 30 minutes at 37°, 250 μl of 1N NaOH are added. The mixture is extracted with 1 ml of toluene. 800 μl of the organic layer are subjected to liquid scintillation counting to determine the fraction of substrate that has been cleaved to dehydroepiandrosterone (DHEA).

[3] = molecular target: T2, steroid sulfatase in HaCaT keratinocytes (Homo sapiens, UniProt P08842); assay: Steroid sulfatase inhibition in HaCaT cells incubated with DHEAS; format: cell-based; conditions: intact HaCaT keratinocytes, 0.3 μM DHEAS, 96 hours
T2 construct: HaCaT keratinocytes are cultivated in Dulbecco's modification of Eagle's medium (DMEM); endogenous in cells; host or cells: HaCaT keratinocytes
T2 sequence (P08842 22-583): T1 sequence (P08842 22-583)
Procedure: Steroid Sulfatase Inhibition in HaCaT Cells Incubated with DHEAS
HaCaT keratinocytes are cultivated in Dulbecco's modification of Eagle's medium (DMEM) supplemented with 10% v/v fetal calf serum (FCS). They are grown to confluency and then harvested by trypsinization. Approximately 2×10^6 cells are dispensed into 9.6 cm^2 dishes and incubated in medium containing FCS until confluency is reached. Then the medium is changed to serum-free DMEM (1.5 ml per well); 0.3 μM DHEAS is included as substrate with 1.5 μCi/well [^3H]-DHEAS (21 Ci/mmol) as tracer. Incubation is continued for 96 hours. […] In parallel, DHEAS is also incubated with medium without cells as a control for non-enzymatic hydrolysis. After incubation, the supernatant is removed and 1 ml is extracted with 4 ml of toluene. 3 ml of the organic layer are collected and the solvent evaporated in vacuo. The residue is taken up in acetonitrile. 10 μg DHEA is included as carrier. The extract is analysed by high performance liquid chromatography (HPLC) using a RP C-8 column and isocratic elution with 10 mM ammonium sulfate pH 6/acetonitrile (60/40), at a flow rate of 1 ml/min. The amount of DHEA cleaved during incubation is calculated from the area of the corresponding radioactive peak determined by continuous monitoring with a radiodetector equipped with a flow-cell.

| Structure (SMILES) | melting point | pIC50 (steroid sulfatase [1]) | pIC50 (steroid sulfatase [2]) | pIC50 [3] |
| --- | --- | --- | --- | --- |
| CN(C)S(=O)(=O)Oc1ccc2oc(C(C)(C)C)cc(=O)c2c1 [Example 9, N,N-Dimethylsulfamic acid 2-t-butyl-4H-chromen-4-on-6-yl ester] | 83 to 85 °C | – | – | – |
| C[C@]12CC[C@@H]3c4ccc(OS(N)(=O)=O)cc4CC[C@H]3[C@@H]1CCC2=O [Estrone-3-O-sulfamate] | – | ~7.22 | 8.30 to 9.00 | ~10.00 |

Reference: patent US6346626B1, “Chromanone and thiochromanone compounds” (Novartis AG, priority 1998, dated 2002)
